Values joined by “and” are separate entries in the source; they are usually repeats but may differ in a detail not shown here. Equal values may be shown once. Read-outs that look alike come from different tables or passages of the source.
Columns and labels:
[1] = cited from earlier work
[2] = human, cited from earlier work
[3] = Kinetics of UV-P in blood after single oral administration (human volunteer study); type: in vivo; details: for half-life: po, 0.3 mg/kg; for Tmax: oral, post-exposure, read-out: time of maximum blood levels
Experimental: Three healthy volunteers (two men and one person) aged between 23 and 57 years were included in the study. The administered dose of UV-P was calculated with respect to an adequate distance from the no-observed-adverse-effect level (NOAEL) determined in toxicological studies in rats (30 mg/kg body weight per day) (OECD [2017]). The NOAEL was used as a starting point and a safety factor of 100 was applied. As a result, 0.3 mg/kg body weight was administered to each participant.
(§1) One blood and one urine sample were collected from each study participant prior to the oral administration of UV-P to determine potential background exposure. 14–27 mg of UV-P (see Table 1) were weighed onto a small piece of bread with butter, which was then consumed by the volunteers. From Subject 1, urine and blood samples were collected up to 72 h post-application. From the other two subjects, samples of urine and blood were collected up to 48 h post-application. The participants collected all urine voids in separate containers. Sampling times and volumes were recorded for each sample. The urine samples were aliquoted and stored at − 20 °C until analysis. 9 ml of blood were drawn from peripheral veins 1 h, 2 h, 3 h, 4 h, 5 h, 6 h, 10 h, 24 h, and 48 h after exposure and collected in EDTA-Monovettes®. From Subject 1, additional blood samples were drawn 8 h, 12 h, 32 h, and 72 h after exposure. Blood samples were stored at – 20 °C until analysis.
The preparation and processing of the blood samples was based on a previously published method (Fischer and Göen [2023]). The samples were stored at – 20 °C until analysis. The samples were thawed at room temperature and mixed on a roller mixer. 1 ml of each sample was pipetted into a separate 6-ml glass vial. 20 µl of the d4-UV-P spiking solution [1000 µg/l of d4-UV-P in a mixture of 0.9% NaCl solution and acetonitrile (v/v, 9:1)] was added. 1 ml of acetonitrile was added to the samples, which were then vortex-mixed for 1 min and centrifuged at 4000 × g for 15 min at room temperature. The supernatants were transferred to clean 6-ml glass vials. 0.5 ml of sodium acetate buffer (0.4 M, pH 5.0) and 10 µl of β-glucuronidase/arylsulfatase from H. pomatia were added. After brief vortex-mixing, the samples were incubated at 37 °C for 16 h. After incubation, the samples were transferred to conical-bottomed centrifuge tubes and diluted with 2.5 ml of water. 1 ml of acetonitrile and 700 µl of chloroform were added and the samples were vortex-mixed for 30 s and centrifuged at 2500 × g for 15 min. The lower organic phases were pipetted into separate 1.8-ml glass vials and evaporated to dryness, followed by the addition of 40 µl of toluene and 40 µl of BSA/TMCS. The samples were vortex-mixed and derivatized at room temperature for 10 min. Afterwards, 20 µl of 5% (v/v) TSIM were added. The samples were vortex-mixed and transferred into the micro-inserts of 1.8-ml glass vials. Finally, the samples were heated to 40 °C for 1 h and analyzed by GC–MS/MS.
A seven-point calibration curve in the range of 0.5–150 µg/l was applied. Calibration standards were prepared by spiking human blood with various volumes of the UV-P spiking solutions containing 1000 µg/l or 100 µg/l of UV-P in a mixture of 0.9% NaCl solution and acetonitrile (v/v, 9:1). One sample each of Qlow (low-concentration quality-control material; 1 µg/l) and Qhigh (high-concentration quality-control material; 30 µg/l) was processed analogously to the samples in each analytical run. A reagent-blank sample, containing water instead of blood, was included in each analytical run as well. Any blank values were subtracted from the analytical results. The reliability criteria of the method are given in the Supplementary Information. […]

[4] = design: method as in ref Fent et al. [2014]; Zhuang et al. [2017]; Sakuragi et al. [2021]; details: in vivo studies; ref Fent et al. [2014]; Zhuang et al. [2017]; Sakuragi et al. [2021]; cited from earlier work
rats = tested on: rats; design: method as in OECD [2017]; details: ref OECD [2017]; cited from earlier work
[5] = design: method as in ref Arisu et al. [1992]; Björkner and Niklasson [1997]; Niklasson and Björkner [1989]; details: ref Arisu et al. [1992]; Björkner and Niklasson [1997]; Niklasson and Björkner [1989]; cited from earlier work
human serum albumin = tested on: human serum albumin; design: method as in Zhuang et al. [2016]; details: ref Zhuang et al. [2016]; cited from earlier work
[6] = tested on: aryl hydrocarbon receptor; design: method as in ref Fent et al. [2014]; Kubota et al. [2022]; Liang et al. [2023]; Nagayoshi et al. [2015]; details: ref Fent et al. [2014]; Kubota et al. [2022]; Liang et al. [2023]; Nagayoshi et al. [2015]; cited from earlier work
[7] = Renal excretion kinetics of UV-P in urine after single oral administration (human volunteer study); type: in vivo; details: for half-life: oral, 0.3 mg/kg body weight
Experimental: Three healthy volunteers (two men and one person) aged between 23 and 57 years were included in the study. […] The NOAEL was used as a starting point and a safety factor of 100 was applied. As a result, 0.3 mg/kg body weight was administered to each participant.
as §1
The preparation and processing of urine samples was based on a method published by Fischer and Göen ([2021]). However, a few modifications were made. The samples were thawed at room temperature, thoroughly mixed, and subsequently centrifuged at 1600 × g for 2 min. 200 µl of the supernatant were transferred into a 10-ml glass, conical-bottomed centrifuge tube. 800 µl of water, 10 µl of the internal-standard spiking solution (10 mg/l of d4-UV-P in acetonitrile), and 1 ml of sodium acetate buffer (0.4 M, pH 5.0) were added to the samples. After vortex-mixing, 10 µl of β-glucuronidase/arylsulfatase from H. pomatia were added and the samples were briefly vortex-mixed. Enzymatic hydrolysis was performed at 37 °C for 16 h. Afterwards, 2 ml of water, 700 µl of isopropanol, and 400 µl of chloroform were added. The samples were vortex-mixed for 30 s and centrifuged at 2300 × g for 15 min. The lower organic phases were pipetted into 1.8-ml glass vials and evaporated to dryness, followed by the addition of 40 µl of toluene and 40 µl of BSA/TMCS. The samples were vortex-mixed and derivatized at room temperature for 10 min. Afterwards, 20 µl of 5% (v/v) TSIM were added. The samples were vortex-mixed and transferred into the micro-inserts of 1.8-ml glass vials. Finally, the samples were heated to 40 °C for 1 h and analyzed by GC–MS/MS.
A nine-point calibration curve in the range of 10–5000 µg/l was applied for the analysis of the in vivo study samples. For calibration, two analyte spiking solutions containing 50 mg/l and 2 mg/l of UV-P were prepared in acetonitrile.
The urinary creatinine content of the study samples was determined photometrically by the Jaffé’s method (Larsen [1972]). To quantify the unconjugated form of UV-P, the urine samples of one study participant were additionally processed without the addition of β-glucuronidase/arylsulfatase from H. pomatia and incubation at 37 °C.
Renal excretion rates (RE, in µg/h) of UV-P at a certain point in time were calculated by the following equation: RE=ci×vi/ti-ti-1 where ci (in µg/l) is the concentration of UV-P in the urine sample i, vi (in l) is the volume of the respective urine sample, ti (in h) is the elapsed time value of sample collection, and ti–1 (in h) is the elapsed time value of the previous sample collection.

## CC(C)(C)c1cc(-n2nc3ccc(Cl)cc3n2)c(O)c(C(C)(C)C)c1 [UV-327]
[1]; in vivo
  sum of renally eliminated parent compound and metabolites: 0.03%
[2]; in vivo, po
  time of maximum concentrations in blood (average): 6 h

## CCC(C)(C)c1cc(-n2nc3ccccc3n2)c(O)c(C(C)(C)CC)c1 [UV-328, 2-(2H-benzotriazol-2-yl)-4,6-di-tert-pentylphenol]
[1]; accumulated until 72 h post-exposure, ref Denghel et al. [2021], Fischer et al. [2023]
  share of ingested amount excreted via urine as parent compound: 0.001%
[1]; human urine, ref Denghel et al. [2021], Fischer et al. [2023]
  share of conjugation of renally eliminated compound: 16%
[1]; share of ingested amount, ref Denghel et al. [2021], Fischer et al. [2023]
  sum of renally eliminated parent compound and metabolites: 0.12%
[2]; after oral administration, ref Fischer et al. [2023], Denghel et al. [2021]
  time of maximum concentrations in blood (average): 8 h

## Cc1ccc(O)c(-n2nc3ccccc3n2)c1 [UV-P, 2-(2H-Benzotriazol-2-yl)-p-cresol]
[3]; both sexes, human, whole blood, human blood, single oral 0.3 mg/kg, first phase up to 6 h, n = 3, mean ± SD (range), read-out: t1/2—Phase 1 (blood) (converted)
  half-life: 1.3 ± 0.1 h
[3]; both sexes, human, whole blood, human blood, single oral 0.3 mg/kg, second phase, n = 3, mean ± SD (range), read-out: t1/2—Phase 2 (blood) (converted)
  half-life: 7.7 ± 1.1 h
[3]; both sexes, human, whole blood, 6 h post-exposure, single oral 0.3 mg/kg, n = 3, read-out: mean blood level of UV-P
  concentration at 6 h: 44 ± 30 ng/mL
[3]; both sexes, human, whole blood, 24 h post-exposure, single oral 0.3 mg/kg, n = 3, read-out: mean blood level of UV-P
  concentration at 24 h: 2.5 ± 1.3 ng/mL
[3]; both sexes, human, whole blood, 48 h post-exposure, single oral 0.3 mg/kg, n = 3, read-out: mean blood level of UV-P
  concentration at 48 h: 0.7 ± 0.7 ng/mL
[3]; both sexes, whole blood, human blood, single oral 0.3 mg/kg body weight, with enzymatic hydrolysis, n = 3, mean ± SD (range), read-out: cmax (maximum level of UV-P in blood)
  Cmax: 184 ± 36 ng/mL
[3]; human, whole blood, 0.3 mg/kg body weight, 72 h after oral administration, Subject 1 only, read-out: blood level of UV-P
  concentration at 72 h: 0.45 ng/mL
[3]; human, whole blood, 0.3 mg/kg body weight, third subject (Subject 1)
  Tmax: 4 h
[3]; human, whole blood, 0.3 mg/kg body weight, two of the subjects (Subjects 2 and 3)
  Tmax: 1 to 2 h
[3]; subject 1
  slope of linear fit, blood levels without vs with hydrolysis (unconjugated share): 0.133
[3]; subject 2
  slope of linear fit, blood levels without vs with hydrolysis (unconjugated share): 0.196
[3]; subject 3
  slope of linear fit, blood levels without vs with hydrolysis (unconjugated share): 0.135
[4]
  endocrine effects in vivo: no indication of endocrine effects
rats
  no-observed-adverse-effect level (NOAEL): 30 mg/kg body weight per day
[5]
  allergic contact dermatitis: cause allergic contact dermatitis
Human serum albumin
  binding to human serum albumin: bind
[6]
  activation of the aryl hydrocarbon receptor: activates
[7]; Subject 1 only, 72 h
  orally administered dose recovered in urine within 72 h: 44.9%
[7]; after exposure, Subject 1 (Figure SI-3)
  time at which cumulative amount excreted via urine reached a plateau: about 24 h
[7]; both sexes, human, urine, human urine, first phase until 7 h post-administration, n = 3, mean ± SD (range), read-out: t1/2—Phase 1 (renal excretion) (converted)
  half-life: 0.7 ± 0.2 h
[7]; both sexes, human, urine, human urine, second elimination phase, n = 3, mean ± SD (range), read-out: t1/2—Phase 2 (renal excretion) (converted)
  half-life: 6.6 ± 1.1 h
[7]; both sexes, human, urine, po, 0.3 mg/kg, human urine, single oral 0.3 mg/kg, n = 3, mean ± SD (range), read-out: tmax (timepoint of maximum renal excretion rate)
  Tmax: 3.5 ± 1.1 h
[7]; human urine, 6 h, n = 3, mean ± SD (range)
  FUE after 6 h (urinary excretion factor, % of dose): 26.7–33.2%
[7]; human urine, 12 h, n = 3, mean ± SD (range)
  FUE after 12 h (urinary excretion factor, % of dose): 30.4–40.2%
[7]; human urine, 24 h, n = 3, mean ± SD (range)
  FUE after 24 h (urinary excretion factor, % of dose): 31.7–43.3%
[7]; human urine, 48 h, n = 3, mean ± SD (range)
  FUE after 48 h (urinary excretion factor, % of dose): 37.2 ± 5.4% and 32.0–44.7% and 32–45% and 37%
[7]; human urine, single oral 0.3 mg/kg body weight, with enzymatic hydrolysis, n = 3, mean ± SD (range), 0.3 mg/kg
  REmax (maximum renal excretion rate): 2896 ± 884 µg/h and 2896 ± 885 µg/h
[7]; human urine, single oral 0.3 mg/kg, n = 3, mean ± SD (range), 0.3 mg/kg
  tmax (timepoint of maximum renal excretion rate): 2.6 to 5.0 h and 3 to 5 h

Source: PMC11775033, “Toxicokinetics of benzotriazole UV stabilizer UV-P in humans after single oral administration” (Archives of Toxicology, 2024)
